Eleven molecules from patent EP0043971A1, “Indanoneoxyalkylpiperazine derivatives, the preparation thereof and pharmaceutical compositions containing the same” (priority 1980, dated 1982) can be followed below.

Like-named read-outs stand apart in the source and are kept apart here.

Experiment [1] deals with weiblichen NMRI-Mäusen. The experiment is described as follows: Sedative effect: inhibition of orientation hypermotility induced by a new environment, photoelectric measurement. It counts as in vivo, Maus. The conditions noted are these: for ED50: Mus musculus, po, 0.5 h, Maus, read-out: Motilitätshemmung ED 50 %; for Motilitätshemmung um 50 %: -mal größere Dosen als Referenzsubstanz / Wirkungsstärke (sedativ) der Referenzsubstanz: relative to Chlorpromazin; for Wirkungsstärke (sedativ) der Referenzsubstanz: mouse p.o.; for sedative Wirkung: result in words. From the text: (§1) Sie eignen sich mit bevorzugter sedativ/transquilisierender und anti-monaminerger Wirkung als Sedativa/Hypnotika oder als Tranquilizer bzw. Neuroleptica. Andere erfindungsgemäße Verbindungen eignen sich wegen ihrer relativ selektiven blutdrucksenkenden Wirksamkeit zur Behandlung der Hypertonie und zur Entlastung des Herzen bei Herzinsuffizienz. ) Zum Nachweis der pharmakologischen Wirkungen wurden folgende Methoden verwendet: • 1. Sedative Wirkung • 4-8 Gruppen von jeweils 3 weiblichen NMRI-Mäusen erhalten die Substanz oral appliziert. Die photoelektrische Bestimmung der durch eine neue Umgebung induzierten Orientierungshypermotilität erfolgt 30 min nach der Applikation der Substanzen für eine Dauer von 30 min. • Als ED 50 wird die Dosis bestimmt, welche im Vergleich zu Placebo-behandelten Kontrolltieren eine Abnahme der Orientierungshypermotilität um 50 % bewirkt. • 2. Anti-Methamphetamin-Wirkung • Methamphetamin-HCl (2,5 mg/kg i.v.) ruft an Ratten regelmäßig folgende Symptome hervor: motorische Unruhe, Such- und Schnüffelbewegungen, Fellsträuben sowie Tremor (Janssen et al., Arzeim. Forsch./Drug Res. 13, 205, 1963, RANDRUP et al., Psychopharmacologia 11, 300, 1967). • Die Prüfsubstanzen werden 30 min vor Methamphetamin intraperitoneal verabfolgt. Kriterium für einen Substanzeffekt ist das Ausbleiben der Schnüffelbewegungen innerhalb eines 5-minütigen Beobachtungszeitraums nach Methamphetamin-Injektion. • Als mittlere Hemmdosis (ED 50) wird mittels Probitanalyse die Dosis ermittelt, die das Symptom bei der Hälfte der Tiere verhindert. • 3. Hypotensive Wirkung • Die blutdrucksenkende Wirkung wurde an narkotisierten Ratten (Stamm: Spraque Dawley, Gewicht: 230-280 g) in Urethan-Narkose (1,78 g/kg i.p.) nachgewiesen. Der Blutdruck wurde in der Aorta carotis gemessen. Die Substanzapplikation erfolgte in eine Vena jugularis (wäßrige Lösung, 1 ml/kg). Als ED 20 % wurden aus der linearen Regression zwischen log Dosis (mg/kg) und relativer Blutdrucksenkung (Δ%) die Dosen ermittelt, welche eine 20 %ige Blutdrucksenkung bewirken.

Experiment [2] relates to narkotisierten Ratten (Stamm: Spraque Dawley). The experiment is described as follows: Hypotensive effect: blood pressure lowering in urethane-anaesthetised rats. It counts as in vivo, Ratte. The conditions noted are these: for ED20: Rattus norvegicus, iv, read-out: Blutdrucksenkung ED 20 %; for Blutdrucksenkung ED 20 % R.W. (Relative Wirksamkeit; Chlorpromazin = 1,00) / Blutdrucksenkung ED 20 % R.W. (Relative Wirksamkeit: Chlorpromazin = 1,00): i.v.; for Q (ED 50 % Motilitätshemmung / ED 20 % Blutdrucksenkung): ratio of mouse p.o. ED 50 % to rat i.v. ED 20 %; for hypotensiv wirksame Dosen, -mal größer als die der Referenzsubstanz: rat i.v.
Source text: as §1

The mark [3] stands for this setting: Table 1, Applikation: per. os., measured 30 min after application for 30 min.
Setting [4] is: Table 1, Ratte, Urethan-Narkose.
Where [5] appears, read: Table 2, Ratte, Urethan-Narkose, Applikation: i.v.
[6] abbreviates: Table 2, Ratte, Urethan-Narkose.
The mark [7] stands for this setting: Table 1, Ratte, Urethan-Narkose, Applikation: i.v.

For the molecule `CN(C)CCCN1c2ccccc2Sc2ccc(Cl)cc21` [Chlorpromazin, reference compound], the ED50 in experiment [1] (setting [3]) amounted to 2.11 mg/kg. Further, in experiment [2], the “Quotienten aus den effektiven Dosen für die Motilitätshemmung (ED 50 %) und Blutdrucksenkung (ED 20 %)” value is 81 and the ED20 was determined as 0.026 mg/kg. The “Blutdrucksenkung ED 20 % R.W. (Relative Wirksamkeit; Chlorpromazin = 1,00)” value in experiment [2] (setting [4]) is recorded as 1,00. The “Blutdrucksenkung ED 20 %” value in experiment [2] (setting [5]) is 0,0260 mg/kg. For the same molecule, the “Blutdrucksenkung ED 20 % R.W. (Relative Wirksamkeit: Chlorpromazin = 1,00)” value in experiment [2] (setting [6]) is 1,00. The “Q (ED 50 % Motilitätshemmung / ED 20 % Blutdrucksenkung)” value in experiment [2] (Table 2) was determined as 81.

On to `COc1ccccc1N1CCN(CC(O)COc2cccc3c2C(=O)CC3)CC1` (racemic) [Beispiel 23, 7-(3-[4-(2-Methoxyphenyl)-1-piperazi-nyl]-2-hydroxy-propoxy)-indanon-1], for which the ED50 in experiment [1] (Table 2, Applikation: per os.) was determined as 19 mg/kg. Moreover, in experiment [2] (setting [5]), the ED20 came out at 0.057 mg/kg. In experiment [2] (setting [6]), the “Blutdrucksenkung ED 20 % R.W. (Relative Wirksamkeit: Chlorpromazin = 1,00)” value is 0,46. Moreover, the “Q (ED 50 % Motilitätshemmung / ED 20 % Blutdrucksenkung)” value in experiment [2] (Table 2) is on record as 333.

Turning to `O=C1CCc2cccc(OCC(O)CN3CCN(c4ccccc4Cl)CC3)c21` (racemic) [Beispiel 20, 7-(3-[4-(2-Chlorphenyl)-1-piperazinyl]--2-hydroxy-propoxy)-indanon-1], the ED50 in experiment [1] (Table 2, Applikation: per os.) is 42.4 mg/kg. Besides, the “Motilitätshemmung um 50 %: -mal größere Dosen als Referenzsubstanz” value (“Motilitätshemmung um 50 %” below) in experiment [1] is 20 mal. The “Quotienten aus den effektiven Dosen für die Motilitätshemmung (ED 50 %) und Blutdrucksenkung (ED 20 %)” value in experiment [2] is reported as 4 077. Besides, the ED20 in experiment [2] (setting [5]) stood at 0.0104 mg/kg. Moreover, the “Blutdrucksenkung ED 20 % R.W. (Relative Wirksamkeit: Chlorpromazin = 1,00)” value in experiment [2] (setting [6]) is 2,50. The “Q (ED 50 % Motilitätshemmung / ED 20 % Blutdrucksenkung)” value in experiment [2] (Table 2) is on record as 4077. Also, the “stärker wirksam als Chlorpromazin (Blutdrucksenkung ED 20 %)” value in experiment [2] (relative to Chlorpromazin) was 2,5 mal.

As to `COc1ccccc1N1CCN(CC(O)COc2cccc3c2CCC3=O)CC1` (racemic) [Beispiel 13, 4-(3-[4-(2-Methoxyphenyl)-1-pipera-zinyl]-2-hydroxy-propoxy)-indanon-1], the ED50 in experiment [1] (Table 2, Applikation: per os.) is 11 mg/kg. For the same molecule, the “Motilitätshemmung um 50 %” value in experiment [1] was 5 mal. In addition, the ED20 in experiment [2] (setting [5]) stood at 0.0293 mg/kg. Further, the “Blutdrucksenkung ED 20 % R.W. (Relative Wirksamkeit: Chlorpromazin = 1,00)” value in experiment [2] (setting [6]) is listed as 0,89. Also, the “Q (ED 50 % Motilitätshemmung / ED 20 % Blutdrucksenkung)” value in experiment [2] (Table 2) came out at 376. The “Wirksamkeit nach den blutdrucksenkenden Dosen (ED 20 %) von Chlorpromazin” value in experiment [2] (relative to Chlorpromazin) came out at 89%.

Consider `COc1ccccc1N1CCN(CC(O)COc2ccc3c(c2)CCC3=O)CC1` (racemic) [Beispiel 17], for which, in experiment [1] (Table 2, Applikation: per os.), the ED50 is 13.2 mg/kg. Moreover, the “Quotienten aus den effektiven Dosen für die Motilitätshemmung (ED 50 %) und Blutdrucksenkung (ED 20 %)” value in experiment [2] is reported as 183. Moreover, the ED20 in experiment [2] (setting [5]) was 0.0722 mg/kg. Also, the “Blutdrucksenkung ED 20 % R.W. (Relative Wirksamkeit: Chlorpromazin = 1,00)” value in experiment [2] (setting [6]) is recorded as 0,36. Also, the “Q (ED 50 % Motilitätshemmung / ED 20 % Blutdrucksenkung)” value in experiment [2] (Table 2) is recorded as 183.

As to `O=C1CCc2c(OCC(O)CN3CCN(c4ccc(F)cc4)CC3)cccc21` (racemic) [Beispiel 1, 4-(3-[4-(4-Fluorphenyl)-1-piperazinyl]-2-hydroxy-propoxy)--indanon-1], the ED50 in experiment [1] (setting [3]) was determined as 3.05 mg/kg. Besides, in experiment [1], the “Wirkungsstärke (sedativ) der Referenzsubstanz” value is 69% and the “sedative Wirkung” value is listed as “sedativ wirken”. Moreover, the ED20 in experiment [2] (setting [7]) was 1.07 mg/kg.

As for `COc1cccc(N2CCN(CC(O)COc3cccc4c3CCC4=O)CC2)c1` (racemic) [Beispiel 14, 4-(3-[4-(3-Methoxyphenyl)-1-pipera-zinyl]-2-hydroxy-propoxy)-indanon-1], the ED50 in experiment [1] (setting [3]) amounted to 9.44 mg/kg. In addition, in experiment [1], the “Wirkungsstärke (sedativ) der Referenzsubstanz” value came out at 22% and the “sedative Wirkung” value is on record as “sedativ wirken”. The ED20 in experiment [2] (setting [7]) came out at 1 mg/kg.

Turning to `Cc1ccccc1N1CCN(CC(O)COc2cccc3c2CCC3=O)CC1` (racemic) [Beispiel 10, 4-(3-[4-(2-Methylphenyl)-1-pipera-zinyl]-2-hydroxy-propoxy)-indanon-1], the ED50 in experiment [1] (Table 2, Applikation: per os.) came out at 46.4 mg/kg. Further, the “Motilitätshemmung um 50 %” value in experiment [1] was 20 mal. Further, in experiment [2] (setting [6]), the “Blutdrucksenkung ED 20 % R.W. (Relative Wirksamkeit: Chlorpromazin = 1,00)” value is given as 0,16. The “Q (ED 50 % Motilitätshemmung / ED 20 % Blutdrucksenkung)” value in experiment [2] (Table 2) is 294. In addition, the “Wirksamkeit nach den blutdrucksenkenden Dosen (ED 20 %) von Chlorpromazin” value in experiment [2] (relative to Chlorpromazin) was found to be 16%.

Take `O=C1CCc2cccc(OCCCN3CCN(c4ccc(F)cc4)CC3)c21` [Beispiel 30, 7-(3-[4-(4-Fluorphenyl)-1-piperazinyl]--propoxy)-indanon-1]: the ED50 in experiment [1] (setting [3]) was determined as 5.03 mg/kg. For the same molecule, the “sedative Wirkung” value in experiment [1] is “sedativ wirken”. In addition, the “Blutdrucksenkung ED 20 % R.W. (Relative Wirksamkeit; Chlorpromazin = 1,00)” value in experiment [2] (setting [4]) is listed as 0,16. Moreover, in experiment [2] (relative to Chlorpromazin), the “hypotensiv wirksame Dosen, -mal größer als die der Referenzsubstanz” value worked out at 6 mal.

`COc1ccc(N2CCN(CC(O)COc3ccc4c(c3)CCC4=O)CC2)cc1` (racemic) [Beispiel 19, 5-(3-[4-(4-Methoxyphenyl)-1-piperazi-nyl]-2-hydroxy-propoxy)-indanon-1]: the ED50 in experiment [1] (setting [3]) came out at 5.76 mg/kg. In experiment [1], the “sedative Wirkung” value is recorded as “sedativ wirken”. Further, the ED20 in experiment [2] (setting [7]) worked out at 7.91 mg/kg. The “hypotensiv wirksame Dosen, -mal größer als die der Referenzsubstanz” value in experiment [2] (relative to Chlorpromazin) was 300 mal.

Turning to `O=C1CCc2c(OCCCN3CCN(c4ccc(F)cc4)CC3)cccc21` [Beispiel 4, 4-(3-[4-(4-Fluorphenyl)-1-piperazinyl]-propoxy)-indan-1-on], in experiment [1] (setting [3]), the ED50 worked out at 3.56 mg/kg. Moreover, the “sedative Wirkung” value in experiment [1] is recorded as “sedativ wirken”. For the same molecule, the “Blutdrucksenkung ED 20 % R.W. (Relative Wirksamkeit; Chlorpromazin = 1,00)” value in experiment [2] (setting [4]) is on record as 0,14.
